Data set [1] concerns TT cells. As to the kind of experiment: Cytotoxicity test using CPT-11-encapsulating liposomes. As to conditions: Homo sapiens. Format: cell-based. The procedure:
TT cells were seeded into a 96-well plate at a density of 10^4 cells/well, and free CPT-11, 1.6Oct-CL or SL was added thereto at various concentrations prior to incubation for 48 hours, 72 hours and 96 hours. Next, after rinsing the cells with PBS, a coloring reagent (Cell Counting kit-8, Dojindo Laboratories) was added at 10 μL per well (100 μL), the absorbance at 450 nm was measured and IC50 (μM) was calculated.

The subject of data set [2] is TT cells. Description: Effect of CPT-11-encapsulating liposomes in vivo, TT cell tumor-bearing mice (four mice per group). Here is the method: The following test was conducted to examine the in vivo effect of CPT-11-encapsulating Oct-modified liposomes. After transplanting 10^7 TT cells into mice (ICR nu/nu mice, 6-week-old, female, Oriental Yeast Co., Ltd.), tumors with tumor volumes of […] formed. To four mice in each group there were administered unmodified liposomes (CL) at 10 mg/kg body weight, as the CPT-11 amount, liposomes modified with 1.6 mol % Oct-PEG-DSPE (1.6Oct-CL), and liposomes modified with 1.6 mol % Oct-PEG-DSPE and 0.9% mol % PEG-DSPE (1.6Oct-SL). The administration was twice (1st and 4th days) through the caudal vein. As a control there was administered physiological saline and free CPT-11 (30 mg/kg), three times (1st, 4th and 7th days). The tumor size and body weight were periodically measured. […] The column headed “% ILS” in Table 3 contains the values calculated by the formula: [(mean survival days of treated group)−(mean survival days of control group)/(mean survival days of control group)]×100(%), with physiological saline as the control. The column headed “Median” in Table 3 contains the median values for survival time (days) for each group consisting of N animals.

Data set [3] concerns TT cells. Description: Competitive inhibition test of intracellular uptake. Type of data set: cell-based, human. As to conditions: free Oct in 20-fold molar excess (84 nmol/ml), 37° C., 2 hours. The procedure:
A competitive inhibition test was conducted to examine whether or not the intracellular uptake observed in Example 2 takes place via somatostatin receptor (SSTR).
The competitive inhibition is shown schematically in FIG. 2(A).

Data set [4] deals with TT cells. Description: Cytotoxicity test using non-drug-encapsulating liposomes. Format: cell-based, human. As to conditions: 0.042-8.4 μM Oct, 96 hours, no drug encapsulated. The procedure: Next, a cytotoxicity test was conducted using non-CPT-11-encapsulating liposomes, in order to evaluate the effect of the ligand (Oct) on cytotoxicity. […] After rinsing the cells with PBS, a coloring reagent was added and the absorbance at 450 nm was measured.
In FIG. 4, the four bars for each concentration are, from the left, the cell survival rates (%) for free Oct, Empty 1.6Oct-CL, Empty 4.4Oct-CL and Empty SL, respectively.

Setting [5] is: liposomes 10 mg/kg as CPT-11 twice, free CPT-11 30 mg/kg three times.

pIC50: −log10 of the molar value.

On to `CCc1c2c(nc3ccc(OC(=O)N4CCC(N5CCCCC5)CC4)cc13)-c1cc3c(c(=O)n1C2)COC(=O)[C@]3(O)CC` [Free CPT-11, irinotecan], for which the pIC50 – broadly, −log10 of the IC50, conventionally taken in molar units – in the data set on TT cells [1] (48 hrs incubation) was 4.87; in the data set on TT cells [1] (72 hrs incubation), 5.18; in the data set with TT cells [1] (96 hrs incubation), 5.66. The “Survival time Median” value in the data set with TT cells [2] (liposomes 10 mg/kg as CPT-11, caudal vein, 1st and 4th days, free CPT-11 30 mg/kg, 1st, 4th and 7th days) was 88 (4) days. The “survival time and survival rate (life-lengthening effect)” value with TT cells [2] (setting [5]) is listed as “no life-lengthening effect was observed”. Also, the tumor size entry with TT cells [2] (setting [5]) is recorded as “tumor size increased”. Moreover, the “Survival time % ILS” value in the data set with TT cells [2] (physiological saline as control, liposomes 10 mg/kg as CPT-11 twice, free CPT-11 30 mg/kg three times) worked out at 30.4%.
In the case of `C[C@@H](O)[C@@H]1NC(=O)[C@H](CCCCN)NC(=O)[C@@H](Cc2c[nH]c3ccccc23)NC(=O)[C@H](Cc2ccccc2)NC(=O)[C@@H](NC(=O)[C@H](N)Cc2ccccc2)CSSC[C@@H](C(=O)N[C@H](CO)[C@@H](C)O)NC1=O` [free Oct, octreotide], the “effect of competitor on intracellular uptake of DXR-encapsulating 1.6Oct-CL” value in the data set with TT cells [3] is given as “did not affect”. Besides, the “cytotoxicity (cell survival rate)” value with TT cells [4] was “Cytotoxicity was observed”.

The values above are taken from patent US9289463B2, “Octreotide-modified nanomedicine for cancer treatment or cancer palliative care” (NANOSION CO., LTD., priority 2010, dated 2016).
